Measured values taken from paper PMC8199216 (International Journal of Molecular Sciences, 2021).
“And” between values parts separate entries of the source, which are not always exact repeats. Equal values may be shown once.

Key:
[1] = molecular target: Spindlin1 (Spin1)
[2] = molecular target: G9a
[3] = molecular target: GLP
[4] = molecular target: T1, GLP (982–1266) (Homo sapiens, UniProt Q9H9B1); assay: Coupled enzyme fluorescent histone methyltransferase assay (SAM-SAH conversion); assay type: biochemical; details: fluorescence based coupled enzyme assay
T1 construct: GLP (982–1266) were cloned, expressed, and purified; made in house
T1 sequence (Q9H9B1 982-1266): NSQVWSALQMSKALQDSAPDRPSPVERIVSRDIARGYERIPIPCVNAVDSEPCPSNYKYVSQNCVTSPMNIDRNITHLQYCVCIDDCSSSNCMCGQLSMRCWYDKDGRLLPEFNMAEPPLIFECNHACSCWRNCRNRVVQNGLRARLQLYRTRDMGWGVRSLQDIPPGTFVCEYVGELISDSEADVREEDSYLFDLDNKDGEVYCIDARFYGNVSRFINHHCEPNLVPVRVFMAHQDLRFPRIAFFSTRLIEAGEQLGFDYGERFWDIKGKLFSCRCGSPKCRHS
Experimental: (§1) Full length of S. solfataricus S-adenosylhomocysteine hydrolase (SAHH) was cloned, expressed, and purified using the published protocol.
(§2) The assay was performed using the previously published protocol. Tested compounds were pre-dissolved in assay buffer (20 mM HEPES pH 7.5, 50 mM NaCl, 0.01% Triton X-100, 3 mM MgCl2, 0.1 mg/mL BSA) with 5 μM of purified SAHH, 1 unit of ADA, 10 μM of H3, and 5 nM of either G9a or GLP as 30 μL in black 96-well plate. […] After incubation for 10 min at room temperature, thiol fluorescent probe IV (20 μM, 50 μL) was added.

[5] = molecular target: T2, Human G9a (913–1193) (Homo sapiens, UniProt Q96KQ7); assay: as above; assay type: biochemical; details: fluorescence based coupled enzyme assay
T2 construct: Catalytic domains of Human G9a (913–1193); made in house
T2 sequence (Q96KQ7 913-1193): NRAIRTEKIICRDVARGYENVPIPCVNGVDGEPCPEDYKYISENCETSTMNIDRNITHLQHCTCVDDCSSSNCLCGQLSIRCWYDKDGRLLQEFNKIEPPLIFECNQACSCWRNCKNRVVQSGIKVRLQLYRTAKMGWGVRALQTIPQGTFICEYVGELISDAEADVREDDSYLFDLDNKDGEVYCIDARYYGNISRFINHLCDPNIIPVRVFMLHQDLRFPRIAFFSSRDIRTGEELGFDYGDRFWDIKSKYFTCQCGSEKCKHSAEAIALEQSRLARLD
Experimental: as §1, §2

[6] = molecular target: T3, His-Spindlin1(49–262) (Homo sapiens, UniProt Q9Y657); assay: biochemical
T3 sequence (Q9Y657 49-262): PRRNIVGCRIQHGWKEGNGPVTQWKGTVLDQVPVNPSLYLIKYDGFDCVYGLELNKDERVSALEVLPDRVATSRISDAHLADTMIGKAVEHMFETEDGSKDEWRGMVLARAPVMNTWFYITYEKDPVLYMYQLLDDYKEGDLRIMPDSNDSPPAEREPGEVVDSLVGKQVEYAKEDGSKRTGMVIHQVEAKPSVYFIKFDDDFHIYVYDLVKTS
Experimental: (§3) To investigate the influence of these modifications on the Spindlin1 inhibitory activity, the fluorescence polarization assay established earlier [31] was used to determine the potency of the compounds.
(§4) Fluorescence polarization assays were carried out as described before [31]. […] For the controls, a buffer solution with the same DMSO concentration as the inhibitor solutions was added to the plate instead of the inhibitor solution, the negative control contained the H3(1–14)K4me3-Fluorescein without Spindlin1. The blank control contained buffer solution with DMSO. Every inhibitor concentration and the controls were done in triplicates. Fluorescence polarization values (mP) were determined after blank correction as IS−G×IP/IS+G×IP×1000 , where G is a device-specific factor and IS and IP are the fluorescence intensities of the S and P plane, respectively. […] Curve fitting was carried out using GraphPad Prism 7, applying a non-linear sigmoidal fit with a variable slope.

[7] = molecular target: T3, His-Spindlin1(49–262); details: fluorescence polarization
Experimental: as §3, §4

[8] = read-out: Spin1 inhibition in percentage at specified concentration

Compound	IC50 [1]	IC50 [2]	IC50 [3]	IC50 [4] [nM]	IC50 [5] [nM]	IC50 [6] [nM]	Spindlin1 inhibitory activity (in words) [7]	further results
COc1cc2c(cc1OCCCN1CCC(O)C1)N=C(N)C21CCCC1 (stereo not shown)	(S): 478 ± 34							
COc1cc2c(cc1OCCCN1CCC(O)C1)N=C(N)C21CCCC1 (racemic)	(rac): 584 ± 31	(rac): 2321	(rac): 4432					
COc1cc2c(cc1OCCCN1CCC(O)C1)N=C(N)C21CCCC1 (racemic) [1q (rac)]				4430	2320	584		
CCOc1c(OCCCN2CCCC2)cc2c(c1OCC)C1(CCCC1)C(N)=N2 [1a]							weakly active	% inhibition at 25 μM [1]: 70% @ 25 μM [d]; inhibition at 25 µM [6, 8]: 70%
COc1cc2c(cc1OCCCN1CCC(=O)C1)N=C(N)C21CCCC1 [1b]							weakly active	% inhibition at 100 μM [1]: 81% @ 100 μM [d]; inhibition at 100 µM [6, 8]: 81%
COc1cc2c(cc1OCCCCN1CCCC1)N=C(N)C21CCCCC1 [1c]		> 20000 nM	> 20000 nM	> 20000	> 20000		inactive	% inhibition at 50 μM [1]: 42% @ 50 μM [d]; inhibition at 50 µM [6, 8]: 42%
COc1cc2c(cc1OCCN1CCCC1)N=C(N)C21CCCCC1 [1d]							Inactive	
COc1cc2c(cc1OCCN1CCCC1)N=C(N)C21CCC1 [1e]							Inactive	
COc1cc2c(cc1OCCCN1CCCC1)N=C(N)C21CCCC1 [1f]		431 nM	334 nM	334	431			
CCOc1cc2c(cc1OCCCN1CCCC1)N=C(N)C21CCCC1 [1g]		243 nM	2970 nM	2970	243			
COc1c(OCCCN2CCCC2)cc2c(c1C#N)C1(CCCC1)C(N)=N2 [1h]	3900 nM					3900 ± 700		
COc1c(OCCCN2CCCC2)cc2c(c1Cl)C1(CCCC1)C(N)=N2 [1i]	1600 nM	> 20000 nM	> 20000 nM	> 20000	> 20000	1600 ± 200		
COc1c(OCCCN2CCCC2)cc2c(c1OC)C1(CCCC1)C(N)=N2 [1j]	2500 nM					2500 ± 200		
COc1c(OCCCN2CCCC2)cc2c(c1C(C)=O)C1(CCCC1)C(N)=N2 [1k]	11800 ± 210 nM					11800		
CCOc1cc2c(cc1OCCCN1CCCC1)N=C(N)C21CCCCC1 [1l]	567 nM					567 ± 35		
CC(C)Oc1cc2c(cc1OCCCN1CCCC1)N=C(N)C21CCC1 [1m]	3300 nM					3300 ± 470	micromolar range	
COc1cc2c(cc1OCCCN1CCCC1)N=C(N)C21CCCCC1 [1n]	255 nM	779 nM	527 nM	527	779	255 ± 35		
CCC1(CC)C(N)=Nc2cc(OCCCN3CCCC3)c(OC)cc21 [1o]	1210 nM and 1210 ± 90 nM	> 20000 nM	> 20000 nM	> 20000	> 20000	1210 ± 90		
COc1cc2c(cc1OCCCN1CCCC1)N=C(N)C2(C)C [1p]	157 nM	759 nM	470 nM	470	759	157 ± 12		
COc1cc2c(cc1OCCCN1CC[C@@H](O)C1)N=C(N)C21CCCC1 [1q (R)]	(R): 470 ± 27					470		
COc1cc2c(cc1OCCCN1CC[C@H](O)C1)N=C(N)C21CCCC1 [1q (S)]						478		
CCC1(C)C(N)=Nc2cc(OCCCN3CCCC3)c(OC)cc21 (stereo not shown) [1r]	408 nM	3190 nM	3180 nM	3180	3190	408 ± 35		
CCC1(C)C(N)=Nc2cc(OCCCN3Cc4ccccc4C3)c(OC)cc21 (stereo not shown) [1s]	360 nM	> 20000 nM	> 20000 nM	> 20000	> 20000	360 ± 20	nanomolar range	
CCC1(C)C(N)=Nc2cc(OCCCN3CC[C@@H](C)C3)c(OC)cc21 (stereo partly shown) [1t]	467 nM	> 20000 nM	> 20000 nM	> 20000	> 20000	467 ± 15	nanomolar range	
COc1cc2c(cc1OCCCN1CCC(CO)C1)N=C(N)C21CCCC1 (stereo not shown) [1u]	1250 nM	> 20000 nM	> 20000 nM	> 20000	> 20000	1250 ± 50		
